In patent US20230372277A1, “COMPOSITION FOR PROMOTING HAIR GROWTH AND/OR INHIBITING HAIR LOSS” (priority 2020, published 2023):
Marks after values point to notes of the source that are not given here.

How the values were obtained:
hair follicles [1] = test: Shape and length of hair follicles in haematoxylin and eosin stained dorsal skin; type: in vivo, male wistar albino rats; conditions: testosterone-injected rats; for length of hair follicles (FIG. 5): compounds or mixture oral 10 mg/kg daily 21 days, compared to negative control (negative control compared to normal group)
Method: By staining the skin tissue of experimental animals, the shape change of hair follicles was investigated. […] After 24 hours, the skin sample was soaked in paraffin wax and sectioned to a uniform thickness of 10 μm, and hair follicles were stained with haematoxylin and eosin.

[2] = system: dihydrotestosterone (DHT); test: DHT concentration in plasma (ELISA kit) of testosterone-injected rats; type: in vivo, male wistar albino rats; conditions: for concentration of DHT in plasma (FIG. 4b): testosterone-injected rats, compounds or mixture oral 10 mg/kg daily 21 days
Method: (§1) For 21 days, the testosterone solution and broccoli extract, avocado extract or broccoli and avocado extract were administered, and on the next day, before skin samples were collected, plasma from rats was extracted and the concentration of testosterone and DHT were measured using a testosterone and DHT ELISA kit (Arigo Biolaboratories, Taiwan) according to the manufacturer's instructions.

testosterone = test: Testosterone concentration in plasma (ELISA kit) of testosterone-injected rats; type: in vivo, male wistar albino rats; conditions: for concentration of testosterone in plasma (FIG. 4a): testosterone-injected rats, compounds or mixture oral 10 mg/kg daily 21 days
Method: as §1

hair follicles [3] = test: Density of hair follicles in skin (number in 1 mm^2); type: in vivo, male wistar albino rats; conditions: testosterone-injected rats; for Rate of change compared to normal group (%) (density of hair follicles): Table 7, Equation 1, compounds or mixture oral 10 mg/kg daily 21 days
Method: The density of hair follicles was measured by counting the number of hair follicles in a unit area (1 mm^2).
Rate of change compared to normal group=(hair follicle density of negative control group or experimental group−hair follicle density of normal group)/hair follicle density of normal group (Equation 1)
(§2) The normal control group (control; normal group) is a group in which neither testosterone nor the extract is administered, and the negative control group (Testosterone; T) is a group in which only testosterone is administered.
as §2
as §2, with “As a comparative group, the mixture was administered by the same method, and the administration method was a method of intraperitoneal administration (IP). The” for “The”

hair follicles [4] = test: Ratio of anagen stage and telogen stage of hair follicles in skin; conditions: for Rate of change compared to normal group (anagen/telogen ratio) / Anagen / Telogen / Anagen/telogen ratio: testosterone-injected rats
Method: Male wistar albino rats weight 180 to 240 g, February to March age were bred under the conditions of a constant light-dark cycle in which light was applied from 8 am to 8 pm, a temperature of 22 to 25° C., and a relative humidity of 60%. For the feed of experimental animals, a general pellet dry feed was used, and feed and water were allowed to be consumed at all times.
In addition, the broccoli extract and/or avocado extract prepared in Example 1 were orally administered for a total of 21 days daily so as to be a dose of 100 mg per 1 kg of the body weight of each experimental animal (in case of coadministration group, broccoli extract 67 mg/kg+avocado extract 33 mg/kg).
Rate of change compared to normal group=(anagen/telogen ratio of negative control group or experimental group−anagen/telogen ratio of normal group)/anagen/telogen ratio of normal group (Equation 2)

[5] = rats injected s.c. with testosterone 21 days, extracts oral 100 mg/kg daily 21 days (mixture BE 67 + AE 33 mg/kg), negative control compared to normal group
[6] = Table 7, compounds or mixture (SFN 8 + I3C 1 + β-sitosterol 1 mg/kg) oral 10 mg/kg daily 21 days, mean ± SEM, n = 15
[7] = Table 8, Equation 2, compounds or mixture oral 10 mg/kg daily 21 days
[8] = Table 8, compounds or mixture oral 10 mg/kg daily 21 days
[9] = Table 8, compounds or mixture oral 10 mg/kg daily 21 days, listed as Group B, 10 mg/kg
[10] = Table 8, compounds or mixture oral 10 mg/kg daily 21 days, listed as testosterone solution, 10 mg/kg

## C[C@]12CC[C@H]3[C@@H](CCC4=CC(=O)CC[C@@]43C)[C@@H]1CC[C@@H]2O [Testosterone, testosterone]
Hair follicles [1]
  length of hair follicles (FIG. 5): largely reduced
Hair follicles [1]; extracts oral 100 mg/kg daily 21 days, H&E stained dorsal skin
  shape change of hair follicles (stained photograph, FIG. 2): many hair follicles in the telogen stage were found
Hair follicles [1]; extracts oral 100 mg/kg daily 21 days, extracts compared to negative control, negative control compared to normal group
  length of hair follicles (FIG. 3): largely reduced
[2]; [5]
  concentration of DHT in plasma (FIG. 1b): largely increased
[2]
  concentration of DHT in plasma (FIG. 4b): largely increased
testosterone; [5]
  concentration of testosterone in plasma (FIG. 1a): largely increased
testosterone
  concentration of testosterone in plasma (FIG. 4a): largely increased
Hair follicles [3]; Table 2, Equation 1, extracts oral 100 mg/kg daily 21 days
  Rate of change compared to normal group (hair follicle density): −30.53%
Hair follicles [3]; Table 2, number of hair follicles in 1 mm^2, extracts oral 100 mg/kg daily 21 days, mean ± SEM, n = 15
  Hair follicle density: 0.91 ± 0.069
Hair follicles [3]; Table 5, broccoli extracts by extraction solvent, same method as Example 3-2, mean ± standard error
  Hair follicle density: 0.98 ± 0.23
Hair follicles [3]
  Rate of change compared to normal group (%) (density of hair follicles): −30.53%
Hair follicles [3]; [6]
  Density of hair follicles: 0.91 ± 0.069
Hair follicles [3]; Table 9, Equation 1, mixtures at various mixing ratios, oral 10 mg/kg in total daily 21 days
  Rate of change compared to normal group (density of hair follicles): −21.6%
Hair follicles [3]; Table 9, SFN:I3C:β-sitosterol mixtures at various mixing ratios, oral 10 mg/kg in total daily 21 days, mean ± standard error
  Density of hair follicles: 0.98 ± 0.23
Hair follicles [4]; Table 3, Equation 2, extracts oral 100 mg/kg daily 21 days
  Rate of change compared to normal group (anagen/telogen ratio): −91.23%
Hair follicles [4]; Table 3, hair follicles in anagen stage, extracts oral 100 mg/kg daily 21 days, listed as Group 2, 100 mg/kg
  Anagen: 14.6
Hair follicles [4]; Table 3, hair follicles in anagen stage, extracts oral 100 mg/kg daily 21 days, listed as testosterone solution, 100 mg/kg
  Anagen: reduced
Hair follicles [4]; Table 3, hair follicles in telogen stage, extracts oral 100 mg/kg daily 21 days, listed as Group 2, 100 mg/kg
  Telogen: 85.4
Hair follicles [4]; Table 3, hair follicles in telogen stage, extracts oral 100 mg/kg daily 21 days, listed as testosterone solution, 100 mg/kg
  Telogen: increased
Hair follicles [4]; Table 3, extracts oral 100 mg/kg daily 21 days
  Anagen/telogen ratio: 0.171
Hair follicles [4]; [7]
  Rate of change compared to normal group (anagen/telogen ratio): −91.23%
Hair follicles [4]; [8]
  Anagen/telogen ratio: 0.17
Hair follicles [4]; [9]
  Anagen: 14.6
  Telogen: 85.4
Hair follicles [4]; [10]
  Anagen: reduced
  Telogen: increased
Hair follicles [4]; negative control group administered only with the testosterone solution s.c. 21 days
  anagen/telogen ratio reduced compared to the normal group: about 91%

## OCc1c[nH]c2ccccc12 [indole-3-carbinol]
Hair follicles [1]
  length of hair follicles (FIG. 5): increased
[2]
  concentration of DHT in plasma (FIG. 4b): significantly reduced
testosterone
  concentration of testosterone in plasma (FIG. 4a): significantly reduced
Hair follicles [3]; 10 mg/kg
  Rate of change compared to normal group (%) (density of hair follicles): about 21%
Hair follicles [3]; listed as Group D, 10 mg/kg
  Rate of change compared to normal group (%) (density of hair follicles): +21.37%
Hair follicles [3]; [6]
  Density of hair follicles: 1.59 ± 0.74
Hair follicles [4]; [7]
  Rate of change compared to normal group (anagen/telogen ratio): −54.88%
Hair follicles [4]; [8]
  Anagen/telogen ratio: 0.87*

## CC[C@H](CC[C@@H](C)[C@H]1CC[C@H]2[C@@H]3CC=C4C[C@@H](O)CC[C@]4(C)[C@H]3CC[C@]12C)C(C)C [β-sitosterol]
Hair follicles [1]
  length of hair follicles (FIG. 5): increased
[2]
  concentration of DHT in plasma (FIG. 4b): significantly reduced
Hair follicles [3]; 10 mg/kg
  Rate of change compared to normal group (%) (density of hair follicles): about 68%
Hair follicles [3]; listed as Group E, 10 mg/kg
  Rate of change compared to normal group (%) (density of hair follicles): +67.56%
Hair follicles [3]; [6]
  Density of hair follicles: 2.195 ± 0.093

## C[S+]([O-])CCCCN=C=S (stereo not drawn) [sulforaphane]
Hair follicles [1]
  length of hair follicles (FIG. 5): increased
[2]
  concentration of DHT in plasma (FIG. 4b): significantly reduced
testosterone
  concentration of testosterone in plasma (FIG. 4a): significantly reduced
Hair follicles [3]; 10 mg/kg
  Rate of change compared to normal group (%) (density of hair follicles): about 47%
Hair follicles [3]; listed as Group C, 10 mg/kg
  Rate of change compared to normal group (%) (density of hair follicles): +47.33%
Hair follicles [3]; [6]
  Density of hair follicles: 1.93 ± 0.102
Hair follicles [4]; [7]
  Rate of change compared to normal group (anagen/telogen ratio): −47.05%
Hair follicles [4]; [8]
  Anagen/telogen ratio: 1.03*
